{
  "source": "patent US9241964B2",
  "about": "“Composition from Sphaeranthus indicus and Garcinia mangostana for the control of metabolic syndrome” (LAILA NUTRACEUTICALS, priority 2009, dated 2016)",
  "test_system": "CD36",
  "experiment": "Immunoblot of CD36 in high glucose induced J774 macrophage cells",
  "format": "cell-based, mouse",
  "conditions": "glucose 600 mg/dL for 5 days, LI054A01 at 1 μg/ml",
  "method": "In macrophages, CD36 is a scavenger receptor that mediates uptake of oxidized low-density lipoprotein (OxLDL) and subsequent foam-cell development. Therefore, increased level of CD36 in macrophages has been considered as a predictive marker for development of atherosclerosis. Inhibition of CD36 protein expression in high glucose induced J774 macrophage cells in presence or absence of LI/DD-II/054A/01 and LI054A01 was evaluated using immunoblot assay. Briefly, equal amount of cell lysates protein obtained after treating the cells with LI/DD-II/054A/01 or LI054A01 was resolved in 7.5% SDS-PAGE; thereafter, the proteins were transferred to nitrocellulose membrane. […] Finally, the specific immuno-reactive bands were developed with West-pico chemiluminescent substrate (Pierce Biotechnology, IL, USA), and the immunoblot images were recorded in a Kodak Image Station (Kodak, USA). Band intensities were calculated densitometrically and normalized with expression of actin in respective samples. […]\nExperimental protocol: This was evaluated in glucose induced J774, mouse macrophage cells. […] Protein concentration was measured by Bradford method.\nInhibition of CD36 protein expression in high glucose induced J774 macrophage cells in presence or absence of LI/DD-II/054A/01 and LI054A01 was evaluated in immunoblot assay. […]",
  "data": [
    {"smiles": "C=C1C(=O)O[C@H]2C3=C(C)CCC[C@]3(C)CC[C@@]12O", "note": "[LI054A01, 7-α-hydroxy-4,11(13)-eudesmadien-12,6-olide]", "values": [
      {"measurement": "inhibition of CD36 compared to that shown by LI/DD-II/054A/01", "value": 10, "unit": "times"}
    ]}
  ]
}
